For assay [1], the system named is NCI-H146 cells (human small-cell lung cancer cell lines). In words: Antitumor effect test using NCI-H146 cells subcutaneously implanted into mice (T/C %). It is filed as in vivo. The following applies: NCI-H146 in BALB/cAJcl-nu/nu mice. As to the method:
To 5 mice in each group, a vehicle (0.5% hydroxymethylpropylcellulose containing 0.1 N HCL) or each Example compound was orally administered. […] The major axis and the minor axis of each tumor were measured twice a week with an electric caliper to calculate the tumor volume (TV). According to the tumor volumes thus obtained, a relative tumor volume (RTV) and a relative tumor volume change (T/C (%)) were calculated. The TV, RTV, and T/C (%) were calculated using the following equations. Tumor volume TV(mm^3)=(major axis, mm)×(minor axis, mm)×(minor axis, mm)/2 Relative tumor volume RTV=TV/(TV on the grouping day) T/C(%)=(average RTV of administration group)/(average RTV of vehicle administration group)×100.
The final measurement day was the day following the final administration day.

The test system of assay [2] is NCI-H1417 cells. Description: Cell-growth inhibitory effects of LSD1 inhibitor on sensitive strain NCI-H1417. It is filed as cell-based, human. Particulars: 10 days. As to the method: (§1) As a medium, 10% FBS-containing RPMI1640 was used. Cell lines were seeded in a 96-well flat-bottom microplate in an amount of 120 μL, and a well containing 160 μL of medium alone was also prepared for background measurement. […] After culture, the microplate was allowed to stand at room temperature for 30 minutes. To 160 μL of the cell culture solution or the medium containing no cells, 140 μL of CellTiter-Glo 2.0 Assay (Promega) was added. After the microplate was allowed to stand at room temperature for 10 minutes, the luminescence intensity of viable cells in each well was measured using a microplate reader (PerkinElmer, EnSpire). The IC35 of each drug was obtained in the same manner as above.

The test system of assay [3] is DMS79 cells. Description: Cell-growth inhibitory effects of LSD1 inhibitor on non-sensitive strain DMS79. The format is cell-based, human. Particulars: 10 days. As to the method:
as §1

In assay [4] the test system is HEL cells (human acute myelocytic leukemia cell lines). Description: Cell-growth inhibition test: HEL cells. The following applies: read-out: IC50 (nM), Cell-Growth Inhibition Test: HEL Cells. It is filed as cell-based.
For assay [5], the system named is NCI-H1417 cells (human small-cell lung cancer cell lines). Description: Cell-growth inhibition test: NCI-H1417 cells. The following applies: read-out: IC50 (nM), Cell-Growth Inhibition Test: NCI-H1417 Cells. The format is cell-based.
Assay [6] deals with NCI-H146 cells (human small-cell lung cancer cell lines). Description: Cell-growth inhibition test: NCI-H146 cells. It is filed as cell-based. The following applies: NCI-H146 cells; read-out: IC50 (nM), Cell-Growth Inhibition Test: NCI-H146 Cells. As to the method:
Under the following conditions, an in vitro cell-growth inhibition test was performed with respect to HEL cells (human acute myelocytic leukemia cell lines), NCI-H1417 cells (human small-cell lung cancer cell lines), and NCI-H146 cells (human small-cell lung cancer cell lines).
The cells with the Example compound or with dimethylsulfoxide alone were cultured at 37° C. in a 5% carbon-dioxide-containing incubator for 5 days (HEL cells) or 10 days (NCI-H1417 cells and NCI-H146 cells). After culture, the plate was allowed to stand at room temperature for 30 minutes, and 100 μL of the supernatant was removed from each well to leave 100 μL of the cell culture solution. To each well containing the remaining 100 μL of the cell culture solution, the same amount of CellTiter-Glo 2.0 Assay (Promega, Cat #: G9242) was added. The microplate was shaken with a plate mixer for 1 minute and then allowed to stand in a dark place for 10 minutes. Thereafter, the luminescence intensity of viable cells in each well was measured using a microplate reader (PerkinElmer, EnSpire). […] Cell growth rate(%)=T/C×100 • T: The luminescence intensity in a well to which the test compound was added (count per second) • C: The luminescence intensity in a well to which dimethylsulfoxide alone was added (count per second)

The values below come from patent US12435128B2, “Method for predicting therapeutic effect of LSD1 inhibitor based on expression of INSM1” (TAIHO PHARMACEUTICAL CO., LTD., priority 2017, dated 2025).

Read-outs that look alike come from different tables or passages of the source.

Consider `CC(C)(O)Cc1ccc(-c2ccc(C(=O)N3[C@@H]4CC[C@H]3C[C@@H](N)C4)cc2-c2ccc(C#N)c(F)c2)c(F)c1` [Example 41, 4-[5-[(3-endo)-3-amino-8-azabicyclo[3.2.1]octane-8-carbonyl]-2-[2-fluoro-4-(2-hydroxy-2-methyl-propyl)phenyl]phenyl]-2-fluoro-benzonitrile], for which the “T/C (%)” value in assay [1] (25 mg/kg orally once a day, 21 consecutive days) amounted to 19%. Besides, the growth inhibitory effects entry in assay [2] is “showed growth inhibitory effects”; in assay [3], “did not show growth inhibitory effects”.

On to `CC(C)(O)Cn1nnc2cc(-c3ccc(CN4[C@@H]5CC[C@H]4[C@@H](N)C5)cc3-c3ccc(C#N)c(F)c3)c(F)c(F)c21.Cl.Cl` (single isomer, unassigned) [Example 285], for which the values for the growth inhibitory effects result in assay [2] and in assay [3] were “showed growth inhibitory effects” and “did not show growth inhibitory effects”, respectively.

For `CC(C)(O)Cn1nnc2cc(-c3ccc(C(=O)N4[C@@H]5CC[C@H]4C[C@@H](N)C5)cc3-c3ccc(C#N)c(F)c3)c(F)c(F)c21` [Example 161, 5′-((3-endo)-3-amino-8-azabicyclo[3.2.1]octane-8-carbonyl)-2′-(6,7-difluoro-1-(2-hydroxy-2-methylpropyl)-1H-benzo[d][1,2,3]triazol-5-yl)-3-fluoro-[1,1′-biphenyl]-4-carbonitrile], the IC50 in assay [4] was found to be 5.68 nM. In addition, in assay [1] (40 mg/kg orally once a day, 28 consecutive days), the “T/C (%)” value was 14%.

In the case of `Cn1ccc2cc(-c3ccc(C(=O)N4C5CCC4CC(N)C5)cc3-c3ccc(C#N)c(F)c3)ccc21` (stereo not drawn) [Example 18, 4-[5-[(3-exo)-3-amino-8-azabicyclo[3.2.1]octane-8-carbonyl]-2-(1-methylindol-5-yl)phenyl]-2-fluoro-benzonitrile], the IC50 in assay [4] (HEL cells) worked out at 3.55 nM; in assay [5] (NCI-H1417 cells) it was 4.73 nM; in assay [6] it was 8.13 nM.

`CCC(O)(CC)Cn1nnc2cc(-c3ccc(C(=O)N4[C@@H]5CC[C@H]4[C@@H](N)C5)cc3-c3ccc(C#N)c(F)c3)c(F)c(F)c21` (single isomer, unassigned) [Example 214]: the values for the IC50 in assay [4], in assay [5] and in assay [6] were 0.44 nM, 0.47 nM and 2.58 nM, respectively. Moreover, the growth inhibitory effects result in assay [2] is listed as “showed growth inhibitory effects”; in assay [3], “did not show growth inhibitory effects”.

As a reminder, the IC50 is the concentration needed to halve the response being measured.
